Each structure is given as a SMILES string.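 Assay format: 96-well plates, 48-hour exposure. TGI denotes the concentration required for complete inhibition of growth.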 *1 amine or outer side, *2 acyl side, *3 side chain or, on linkers, in order; H or OH if unused. Where a SMILES comes first, the peptide text is derived from it. Bridges are numbered along the chain shown (N, C = ends). [ ]: non-standard residue; d: D form. The star is where a group is joined. ξ: configuration not given here. X34 = O=C(C(CCCCNO[*:3])N[*:1])[*:2]; Fmoc = O=C(OCC1c2ccccc2-c2ccccc21)*; ξW = NC(Cc1c[nH]c2ccccc12)C(=O)O; ξP = O=C(O)C1CCCN1

In PubChem BioAssay (NCI) one finds TGI data, which are given here for seven compounds.

Test in all cases: DTP human tumour cell line panel, 48 h
Experiment [1] concerns OVCAR-4 ovarian.
In experiment [2] the test system is SF-268 CNS.
The subject of experiment [3] is SK-MEL-2 melanoma.
For experiment [4], the system named is U251 CNS.
Experiment [5] deals with SK-MEL-5 melanoma.
Experiment [6] has as its system NCI-H23 lung.
In experiment [7] the test system is SNB-75 CNS.
Experiment [8] concerns DU-145 prostate.
Experiment [9] concerns NCI/ADR-RES ovarian.
Experiment [10] relates to HOP-92 NSCLC.

The term TGI denotes the concentration giving total growth inhibition. On to `NC(=O)CNC(=O)C1CCCN1C(=O)C1CCCCNOC(=O)CC[C@@H](NC(=O)OCC2c3ccccc3-c3ccccc32)C(=O)NC(Cc2c[nH]c3ccccc23)C(=O)N1` (stereo not given in full) (Fmoc-[dE][ξW][X34][ξP]G-NH2; ester 1-3), for which the TGI in [1], in [2], in experiment [3], in experiment [4], in experiment [5] and in [6] was over 100 µM in each case. In addition, the total growth inhibition concentration (TGI) in [7], in [8], in experiment [9] and in experiment [10] was over 100 µM each time.

With `COc1cc(/C=C2/C(=O)N(C(=O)c3ccccc3O)N=C2C)cc(OC)c1OC`, the concentration for total growth inhibition (TGI) is over 100 µM in [1]; over 100 µM in experiment [2]; over 29.4 µM in [3]; over 100 µM in experiment [4]; 33.6 µM in experiment [5]; over 21.8 µM in experiment [6]. In addition, the TGI in experiment [7] is over 100 µM; in experiment [8] it was over 100 µM; in experiment [9], over 100 µM; in experiment [10] it was over 83.9 µM.

As to `COc1cccc(-c2cc(=O)c3ccccc3o2)c1N`, the total growth inhibition concentration (TGI) in [1], in [2], in [3], in experiment [4], in [5] and in [6] was over 100 µM throughout. Besides, the total growth inhibition concentration (TGI) in experiment [7], in [8], in experiment [9] and in [10] was over 100 µM each time.

With `CCCc1cc(=O)c2c(C)c3[nH]c4ccc(Cl)cc4c3c(C)c2[nH]1`, the TGI in experiment [1] was determined as 3.43 µM; in experiment [2], 24.1 µM; in experiment [3], 14.6 µM; in experiment [4], 3.65 µM; in [5], 21.4 µM; in experiment [6] it was 10.5 µM. For the same compound, the TGI amounted to 7.93 µM in [7], 18.9 µM in experiment [8], 10.2 µM in experiment [9] and 5.1 µM in experiment [10].

As to `Cc1c(-c2nc3ccccc3[nH]2)c(=O)n(-c2ccccc2)n1C`, the TGI in experiment [1], in [2], in experiment [3], in experiment [4], in [5] and in experiment [6] was over 100 µM each time. Further, the TGI in experiment [7], in experiment [8], in experiment [9] and in [10] was over 100 µM in each case.

On to `CC(CN1c2ccccc2Sc2ccccc21)N(C)C` (stereo not given), for which the total growth inhibition concentration (TGI) amounted to 32.5 µM in experiment [1]; 33.5 µM in [2]; 34.7 µM in experiment [3]; 27.7 µM in experiment [4]; 35.6 µM in [5]; 38.2 µM in [6]. Also, the concentration for total growth inhibition (TGI) in experiment [7] is 15.2 µM; in experiment [8], 34.9 µM; in experiment [9], 30.5 µM; in experiment [10], 35.4 µM.

In the case of `COc1cc(O)c(/C=N/N=C(\N)NO)c(OC)c1`, the TGI in [1], in experiment [2], in experiment [3], in experiment [4], in [5] and in [6] was over 10 µM each time. In addition, the TGI in experiment [7], in experiment [8], in experiment [9] and in experiment [10] was over 10 µM each time.
